# According to ChEMBL document CHEMBL1201862, “PubChem BioAssay data set” (2004):
# Active and inactive are the calls of the source.
# What was measured:
# Cytochrome P450 2D6 = Cytochrome P450 2D6 (Homo sapiens, UniProt P10635);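 also: CYP2D6 member of a cytochrome P450 panel assay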
# Cytochrome P450 3A4 = Cytochrome P450 3A4 (Homo sapiens, UniProt P08684);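 also: CYP3A4 tested as one member of a cytochrome P450 panel screen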
# [1] = target: Voltage-gated inwardly rectifying potassium channel KCNH2 (Homo sapiens, UniProt Q12809); details: Potency;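 also: confirmatory quantitative high-throughput screen measuring inhibition of hERG channel activity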
# Voltage-gated inwardly rectifying potassium channel KCNH2, sequence (Q12809 whole entry): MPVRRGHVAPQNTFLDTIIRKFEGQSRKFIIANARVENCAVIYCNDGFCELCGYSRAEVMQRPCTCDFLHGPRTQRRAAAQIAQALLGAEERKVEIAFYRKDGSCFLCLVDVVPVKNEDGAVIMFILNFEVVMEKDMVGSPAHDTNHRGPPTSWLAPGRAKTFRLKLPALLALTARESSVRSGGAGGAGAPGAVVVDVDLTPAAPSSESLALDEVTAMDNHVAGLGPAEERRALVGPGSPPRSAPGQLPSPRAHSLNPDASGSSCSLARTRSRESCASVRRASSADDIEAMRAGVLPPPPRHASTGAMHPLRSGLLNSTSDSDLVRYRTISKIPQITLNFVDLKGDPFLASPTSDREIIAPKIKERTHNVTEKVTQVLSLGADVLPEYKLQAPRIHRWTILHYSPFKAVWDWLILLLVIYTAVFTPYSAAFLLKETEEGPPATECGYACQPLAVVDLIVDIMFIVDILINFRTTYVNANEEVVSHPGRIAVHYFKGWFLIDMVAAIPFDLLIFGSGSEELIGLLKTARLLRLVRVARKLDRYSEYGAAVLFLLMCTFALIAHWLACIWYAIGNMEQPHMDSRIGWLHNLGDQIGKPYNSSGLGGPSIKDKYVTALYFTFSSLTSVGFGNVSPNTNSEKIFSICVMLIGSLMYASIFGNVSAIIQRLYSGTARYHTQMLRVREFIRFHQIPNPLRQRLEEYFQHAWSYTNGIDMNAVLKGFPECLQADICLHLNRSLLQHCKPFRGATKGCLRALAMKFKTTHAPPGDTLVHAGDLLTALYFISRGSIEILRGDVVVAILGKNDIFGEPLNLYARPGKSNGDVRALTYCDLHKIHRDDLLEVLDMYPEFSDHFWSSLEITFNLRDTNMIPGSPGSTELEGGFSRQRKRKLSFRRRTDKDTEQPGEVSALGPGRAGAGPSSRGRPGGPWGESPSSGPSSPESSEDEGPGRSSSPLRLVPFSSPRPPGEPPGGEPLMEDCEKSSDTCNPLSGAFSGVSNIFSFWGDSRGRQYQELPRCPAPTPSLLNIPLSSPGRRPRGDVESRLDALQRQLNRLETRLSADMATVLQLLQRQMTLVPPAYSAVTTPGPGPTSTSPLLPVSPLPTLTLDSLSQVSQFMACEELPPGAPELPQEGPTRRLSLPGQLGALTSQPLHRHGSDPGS
# [2] = NIH-3T3 fibroblast cytotoxicity, dose response, cytotoxicity control, cell-based, fluorescence, Alamar Blue, secondary assay (AID 2327); type: functional;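 also: NIH-3T3 mouse fibroblasts cultured with fluconazole at 8 µg/mL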
# [3] = C. albicans growth with fluconazole, confirmation, fluorescence, retest (AID 2467); type: functional, cell-based
# [4] = target: T1, Ubiquitin-conjugating enzyme E2 N (Homo sapiens, UniProt P61088); type: functional;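 also: Dose-response confirmation in a TR-FRET assay detecting UBC13-driven polyubiquitin chain formation, inhibition measured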
# T1 sequence (P61088 whole entry): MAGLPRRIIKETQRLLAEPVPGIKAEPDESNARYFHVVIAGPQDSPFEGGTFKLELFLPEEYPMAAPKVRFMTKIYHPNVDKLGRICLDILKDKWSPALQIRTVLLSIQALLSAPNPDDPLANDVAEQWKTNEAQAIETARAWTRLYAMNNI
# Cysteine protease ATG4B = Cysteine protease ATG4B (Homo sapiens, UniProt Q9Y4P1); type: functional;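 also: Fluorescence-based dose-response confirmation assay measuring inhibition of ATG4B activity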
# Cysteine protease ATG4B, sequence (Q9Y4P1 whole entry): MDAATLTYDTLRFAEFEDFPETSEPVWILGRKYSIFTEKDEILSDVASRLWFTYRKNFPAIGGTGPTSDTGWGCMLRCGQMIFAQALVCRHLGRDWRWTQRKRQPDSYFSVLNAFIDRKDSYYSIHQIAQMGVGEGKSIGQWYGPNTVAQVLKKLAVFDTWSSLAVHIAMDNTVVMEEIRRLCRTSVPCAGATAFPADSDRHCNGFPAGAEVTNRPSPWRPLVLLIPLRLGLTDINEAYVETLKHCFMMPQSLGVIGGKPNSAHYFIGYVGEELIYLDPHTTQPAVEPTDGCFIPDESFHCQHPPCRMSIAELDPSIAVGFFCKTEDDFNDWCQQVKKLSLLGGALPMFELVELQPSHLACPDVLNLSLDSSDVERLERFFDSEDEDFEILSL
# Phospholipase A2 = Phospholipase A2 (Homo sapiens, UniProt P04054); type: functional;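 also: confirmatory dose-response counterscreen on phospholipase A2, testing hits that came from an ultra-high-throughput screen for ATG4B inhibitors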
# Phospholipase A2, sequence (P04054 whole entry): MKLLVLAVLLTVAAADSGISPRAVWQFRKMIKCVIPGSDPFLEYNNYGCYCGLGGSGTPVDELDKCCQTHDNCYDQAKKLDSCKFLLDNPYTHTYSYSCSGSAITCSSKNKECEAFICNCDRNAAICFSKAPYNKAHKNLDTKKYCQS
# [5] = Shn3 3'UTR reporter inhibitors, dose response, cell-based, Clone20 osteoblasts, firefly luciferase, cherry-picked (AID 624132); type: functional;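 also: firefly luciferase luminescence from reporter carrying the Shn3 3'UTR in osteoblasts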
# [6] = HepG2 cell cytotoxicity, dose response, cytotoxicity control for Shn3 inhibitor project, CellTiter-Glo, cherry-picked (AID 624134); type: functional, cell-based
# [7] = control 3'UTR Renilla luciferase suppression, dose response, counter-screen for Shn3 inhibitor project, cell-based, Clone20-Shn3RL, cherry-picked (AID 624133); type: functional
# [8] = cytotoxicity in HEK-293T cells, dose response, cytotoxicity control for BCR NF-kB inhibitor project, luminescence, B-cell screen hits (AID 489021); type: functional, cell-based;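 also: HEK-293T cells carrying an NF-kB luciferase reporter; cells exposed to compound for about 14 hours before viability readout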
# HEK293 = test: cytotoxicity in HEK293T NF-kB-Luc cells, SAR follow-up, cytotoxicity control for NF-kB activator project, cell-based, resazurin fluorescence (AID 493251); type: functional; details: Homo sapiens
# [9] = target: T2, Heat shock factor protein 1 (Mus musculus, UniProt P38532); test: inhibition of MG132-induced HSE-luciferase signal, confirmation, cell-based, NIH3T3, luminescence, dose retest (AID 2382); type: functional;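 also: NIH3T3 fibroblasts with HSF1-driven luciferase reporter stressed by proteasome inhibitor MG132; luminescence from HSF1-driven luciferase expression after 8 hours of MG132 stress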
# T2 sequence (P38532 whole entry): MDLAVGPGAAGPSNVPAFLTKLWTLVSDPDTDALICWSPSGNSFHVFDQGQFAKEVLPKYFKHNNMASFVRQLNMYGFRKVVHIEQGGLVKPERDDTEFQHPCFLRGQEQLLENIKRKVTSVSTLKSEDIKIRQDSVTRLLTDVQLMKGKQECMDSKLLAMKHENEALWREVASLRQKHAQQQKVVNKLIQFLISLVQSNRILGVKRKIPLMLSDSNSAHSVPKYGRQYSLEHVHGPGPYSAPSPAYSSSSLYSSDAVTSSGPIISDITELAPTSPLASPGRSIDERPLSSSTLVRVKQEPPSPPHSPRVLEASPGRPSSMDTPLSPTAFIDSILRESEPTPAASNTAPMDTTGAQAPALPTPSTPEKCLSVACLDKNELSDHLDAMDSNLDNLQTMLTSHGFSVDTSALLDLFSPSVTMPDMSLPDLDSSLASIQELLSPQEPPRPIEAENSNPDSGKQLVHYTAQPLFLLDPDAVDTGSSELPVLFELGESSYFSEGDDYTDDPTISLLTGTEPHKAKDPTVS
# [10] = target: T3, Microphthalmia-associated transcription factor (Homo sapiens, UniProt O75030); test: TRPM1 promoter luciferase signal decrease, dose response, MITF inhibitor project, cell-based, SK-MEL-5, cherry-picked, set 3 (AID 493073); type: functional
# T3 sequence (O75030 whole entry): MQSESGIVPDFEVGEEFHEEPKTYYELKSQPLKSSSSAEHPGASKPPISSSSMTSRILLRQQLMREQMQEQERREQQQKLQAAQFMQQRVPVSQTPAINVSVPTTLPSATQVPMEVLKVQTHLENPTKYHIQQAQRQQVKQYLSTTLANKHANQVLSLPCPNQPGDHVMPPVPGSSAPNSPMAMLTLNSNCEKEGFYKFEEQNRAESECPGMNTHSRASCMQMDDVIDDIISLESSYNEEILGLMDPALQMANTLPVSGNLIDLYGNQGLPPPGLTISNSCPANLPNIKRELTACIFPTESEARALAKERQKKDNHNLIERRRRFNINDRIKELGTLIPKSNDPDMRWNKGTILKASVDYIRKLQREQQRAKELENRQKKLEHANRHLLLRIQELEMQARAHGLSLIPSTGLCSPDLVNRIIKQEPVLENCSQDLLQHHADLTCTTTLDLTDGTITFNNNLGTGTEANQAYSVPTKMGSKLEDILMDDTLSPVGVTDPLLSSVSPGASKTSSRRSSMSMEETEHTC
# INS1 = test: beta cell apoptosis inhibitors, cytokine rescue, dose response, luminescence, retest (AID 449756); type: functional, cell-based; details: Rattus norvegicus;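 also: cell death triggered by IL-1 beta plus TNF-alpha plus IFN-gamma mixture; protective hits raise ATP signal compared with cytokine alone wells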
# A-375 = test: A375 melanoma cell viability reduction, dose response, counter-screen for MITF modulator project, cherry-pick samples, set 2 (AID 540335); type: functional, cell-based; details: Homo sapiens
# Paired box protein Pax-8 = Paired box protein Pax-8 (Homo sapiens, UniProt Q06710); test: inhibitors of PAX8-driven TPO luciferase reporter, dose response, RMG-I cells, cherry-pick (AID 687027); type: functional, cell-based;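 also: luciferase reporter driven by Pax8 target thyroperoxidase promoter measured by SteadyGlo luminescence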
# Paired box protein Pax-8, sequence (Q06710 whole entry): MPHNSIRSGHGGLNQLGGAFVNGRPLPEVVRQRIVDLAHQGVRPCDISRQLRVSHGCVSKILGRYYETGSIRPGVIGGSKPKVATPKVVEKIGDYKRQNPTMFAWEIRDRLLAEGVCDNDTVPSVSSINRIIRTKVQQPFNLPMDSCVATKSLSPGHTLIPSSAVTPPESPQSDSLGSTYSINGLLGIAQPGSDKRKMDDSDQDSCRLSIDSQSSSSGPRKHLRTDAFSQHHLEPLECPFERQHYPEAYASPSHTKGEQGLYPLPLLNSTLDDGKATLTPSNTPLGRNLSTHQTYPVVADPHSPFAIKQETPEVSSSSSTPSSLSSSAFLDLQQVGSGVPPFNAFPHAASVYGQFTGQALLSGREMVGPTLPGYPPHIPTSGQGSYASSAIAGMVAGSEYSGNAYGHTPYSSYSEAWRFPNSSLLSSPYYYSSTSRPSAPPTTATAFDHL
# [11] = non-specific cell cytotoxicity, dose response, cytotoxicity control for PAX8 inhibitor project, plate reader, dry powder samples (AID 743021); type: functional, cell-based
# [12] = inhibitors of firefly luciferase expression or activity, dose response, H4 neuroglioma cells, luminescence (AID 1990); type: functional, cell-based
# [13] = Luminescence Cell-Based Dose Response HTS to Identify Inhibitors of 5'UTR Stem-Loop Driven Prion Protein mRNA Translation in H4 Neuroglioblastoma Cells. [Related pubchem assays: 1827 (Project Summary), 1813 (Primary HTS)]; type: functional
# [14] = target: Luciferin 4-monooxygenase (Photinus pyralis, UniProt P08659); test: firefly luciferase enzyme inhibitors, dose response, biochemical, luminescence (AID 1891)
# Luciferin 4-monooxygenase, sequence (P08659 whole entry): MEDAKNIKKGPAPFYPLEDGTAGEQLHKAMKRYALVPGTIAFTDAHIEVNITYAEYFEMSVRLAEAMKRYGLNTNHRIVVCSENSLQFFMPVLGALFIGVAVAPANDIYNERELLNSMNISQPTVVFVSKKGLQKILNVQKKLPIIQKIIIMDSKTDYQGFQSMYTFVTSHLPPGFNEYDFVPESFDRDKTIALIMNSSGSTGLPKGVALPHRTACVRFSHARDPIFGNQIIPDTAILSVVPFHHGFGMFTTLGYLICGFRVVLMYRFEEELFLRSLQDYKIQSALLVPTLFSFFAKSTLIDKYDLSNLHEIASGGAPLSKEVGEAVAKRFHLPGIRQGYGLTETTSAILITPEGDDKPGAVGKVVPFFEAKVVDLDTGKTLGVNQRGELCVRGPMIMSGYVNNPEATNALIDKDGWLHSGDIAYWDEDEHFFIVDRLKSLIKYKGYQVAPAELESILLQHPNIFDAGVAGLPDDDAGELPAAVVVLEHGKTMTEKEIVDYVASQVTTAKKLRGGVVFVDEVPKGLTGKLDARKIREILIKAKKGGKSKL
# [15] = Luminescence Cell-Based Dose Confirmation HTS to Identify Inhibitors of Platelet Dense Granule Release. [Related pubchem assays: 1663 (Primary HTS), 1678 (Summary of Project)]; type: functional
# Hexokinase-1 = target: T4, Hexokinase-1 (Homo sapiens, UniProt P19367); test: HK1 enzyme inhibition by HKDC1 hits, SAR follow-up, selectivity assay for HKDC1 inhibitor project, biochemical, set 2, resazurin fluorescence coupled readout (AID 588356); type: functional
# T4 sequence (P19367 whole entry): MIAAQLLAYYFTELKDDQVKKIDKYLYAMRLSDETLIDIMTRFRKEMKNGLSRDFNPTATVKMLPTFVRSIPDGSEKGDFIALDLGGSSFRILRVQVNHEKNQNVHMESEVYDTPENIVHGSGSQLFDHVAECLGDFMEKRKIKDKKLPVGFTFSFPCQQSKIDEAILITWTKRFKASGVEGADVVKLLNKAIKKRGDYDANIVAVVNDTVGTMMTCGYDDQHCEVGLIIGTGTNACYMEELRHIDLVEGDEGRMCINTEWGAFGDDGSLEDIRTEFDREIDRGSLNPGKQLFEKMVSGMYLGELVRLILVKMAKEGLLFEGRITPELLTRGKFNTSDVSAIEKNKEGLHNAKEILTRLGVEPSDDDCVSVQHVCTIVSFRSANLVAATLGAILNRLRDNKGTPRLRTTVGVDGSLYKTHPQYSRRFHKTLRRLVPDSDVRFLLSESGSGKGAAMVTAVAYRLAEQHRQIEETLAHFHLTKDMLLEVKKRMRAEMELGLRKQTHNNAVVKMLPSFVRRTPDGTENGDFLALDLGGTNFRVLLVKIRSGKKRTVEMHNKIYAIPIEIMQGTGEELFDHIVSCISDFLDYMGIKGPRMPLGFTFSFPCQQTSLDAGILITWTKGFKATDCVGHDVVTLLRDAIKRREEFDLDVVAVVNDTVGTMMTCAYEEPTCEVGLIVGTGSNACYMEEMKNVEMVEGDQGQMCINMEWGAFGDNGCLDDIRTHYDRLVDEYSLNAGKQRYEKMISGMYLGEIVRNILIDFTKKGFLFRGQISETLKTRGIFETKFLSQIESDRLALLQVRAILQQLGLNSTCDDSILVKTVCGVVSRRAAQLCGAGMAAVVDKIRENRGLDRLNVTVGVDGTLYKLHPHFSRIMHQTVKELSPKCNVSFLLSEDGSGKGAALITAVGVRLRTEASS
# Hexokinase HKDC1 = target: T5, Hexokinase HKDC1 (Homo sapiens, UniProt Q2TB90); test: HKDC1 hexokinase inhibitors, SAR follow-up, biochemical, set 2 (AID 588355); type: functional
# T5 sequence (Q2TB90 whole entry): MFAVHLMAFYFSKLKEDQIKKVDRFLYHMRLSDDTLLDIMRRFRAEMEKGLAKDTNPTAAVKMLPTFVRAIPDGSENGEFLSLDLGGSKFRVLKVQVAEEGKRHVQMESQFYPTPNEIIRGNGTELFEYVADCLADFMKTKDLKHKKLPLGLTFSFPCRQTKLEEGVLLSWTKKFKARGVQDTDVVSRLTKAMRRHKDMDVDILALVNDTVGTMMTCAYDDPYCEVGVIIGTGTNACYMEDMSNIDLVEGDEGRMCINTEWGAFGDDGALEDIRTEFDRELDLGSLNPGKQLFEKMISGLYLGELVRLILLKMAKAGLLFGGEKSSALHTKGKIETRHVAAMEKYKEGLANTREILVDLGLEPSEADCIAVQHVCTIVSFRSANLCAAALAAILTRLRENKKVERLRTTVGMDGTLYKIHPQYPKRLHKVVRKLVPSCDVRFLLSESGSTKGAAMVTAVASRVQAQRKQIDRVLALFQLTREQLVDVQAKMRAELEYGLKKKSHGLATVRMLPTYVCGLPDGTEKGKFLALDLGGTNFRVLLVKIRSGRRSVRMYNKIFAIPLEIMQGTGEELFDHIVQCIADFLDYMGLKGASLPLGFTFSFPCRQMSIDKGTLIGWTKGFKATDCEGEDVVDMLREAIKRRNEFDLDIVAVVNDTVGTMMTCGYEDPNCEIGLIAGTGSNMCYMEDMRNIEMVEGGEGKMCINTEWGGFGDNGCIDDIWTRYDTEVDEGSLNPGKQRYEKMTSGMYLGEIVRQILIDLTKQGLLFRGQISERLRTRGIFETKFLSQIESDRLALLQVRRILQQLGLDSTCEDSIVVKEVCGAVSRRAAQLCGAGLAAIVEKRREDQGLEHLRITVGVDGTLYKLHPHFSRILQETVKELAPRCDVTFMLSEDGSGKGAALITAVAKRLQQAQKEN
# [16] = target: Induced myeloid leukemia cell differentiation protein Mcl-1 (Homo sapiens, UniProt Q07820); type: functional
# [17] = target: Dual specificity protein kinase CLK1 (Homo sapiens, UniProt P49759); test: CLK1 kinase inhibitors, off-target check, dose response, selectivity assay for Dyrk1A inhibitor project, biochemical, cherry-picked samples (AID 588811)
# [18] = target: Dual specificity tyrosine-phosphorylation-regulated kinase 1A (Rattus norvegicus, UniProt Q63470); type: biochemical, Homo sapiens
# CHO = test: cytotoxicity in TLR9-MyD88 CHO cells, dose response, cytotoxicity control for TLR9-MyD88 binding inhibitor project, cell-based, luminescence (AID 588339); type: functional, hamster; details: Cricetulus griseus;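 also: CHO cells stably coexpressing TLR9 and MyD88 fusions from primary screen; compound exposure lasted 48 hours before viability readout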
# [19] = target: Tyrosyl-DNA phosphodiesterase 2 (Homo sapiens, UniProt O95551); test: human TDP2 enzyme inhibitors, dose response, biochemical, epi absorbance, IC50 (AID 743297)
# Tyrosyl-DNA phosphodiesterase 2, sequence (O95551 whole entry): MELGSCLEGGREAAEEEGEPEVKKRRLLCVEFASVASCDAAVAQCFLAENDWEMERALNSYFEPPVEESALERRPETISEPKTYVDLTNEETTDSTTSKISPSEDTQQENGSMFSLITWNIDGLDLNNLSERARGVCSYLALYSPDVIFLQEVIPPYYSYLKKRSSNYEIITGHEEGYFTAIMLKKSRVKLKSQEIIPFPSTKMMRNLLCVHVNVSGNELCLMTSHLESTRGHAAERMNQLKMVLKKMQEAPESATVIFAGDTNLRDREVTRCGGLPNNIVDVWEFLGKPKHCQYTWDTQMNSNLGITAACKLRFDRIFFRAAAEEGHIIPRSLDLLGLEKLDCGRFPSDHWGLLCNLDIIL
# [20] = target: Short transient receptor potential channel 6 (Mus musculus, UniProt Q61143); test: TRPC6 inhibition potency of TRPC4 inhibitor analogs, dose response, selectivity assay for selective TRPC4 inhibitor project, HEK293 cells, membrane potential dye, IC50 (AID 492987); type: functional, cell-based
# Short transient receptor potential channel 6, sequence (Q61143 whole entry): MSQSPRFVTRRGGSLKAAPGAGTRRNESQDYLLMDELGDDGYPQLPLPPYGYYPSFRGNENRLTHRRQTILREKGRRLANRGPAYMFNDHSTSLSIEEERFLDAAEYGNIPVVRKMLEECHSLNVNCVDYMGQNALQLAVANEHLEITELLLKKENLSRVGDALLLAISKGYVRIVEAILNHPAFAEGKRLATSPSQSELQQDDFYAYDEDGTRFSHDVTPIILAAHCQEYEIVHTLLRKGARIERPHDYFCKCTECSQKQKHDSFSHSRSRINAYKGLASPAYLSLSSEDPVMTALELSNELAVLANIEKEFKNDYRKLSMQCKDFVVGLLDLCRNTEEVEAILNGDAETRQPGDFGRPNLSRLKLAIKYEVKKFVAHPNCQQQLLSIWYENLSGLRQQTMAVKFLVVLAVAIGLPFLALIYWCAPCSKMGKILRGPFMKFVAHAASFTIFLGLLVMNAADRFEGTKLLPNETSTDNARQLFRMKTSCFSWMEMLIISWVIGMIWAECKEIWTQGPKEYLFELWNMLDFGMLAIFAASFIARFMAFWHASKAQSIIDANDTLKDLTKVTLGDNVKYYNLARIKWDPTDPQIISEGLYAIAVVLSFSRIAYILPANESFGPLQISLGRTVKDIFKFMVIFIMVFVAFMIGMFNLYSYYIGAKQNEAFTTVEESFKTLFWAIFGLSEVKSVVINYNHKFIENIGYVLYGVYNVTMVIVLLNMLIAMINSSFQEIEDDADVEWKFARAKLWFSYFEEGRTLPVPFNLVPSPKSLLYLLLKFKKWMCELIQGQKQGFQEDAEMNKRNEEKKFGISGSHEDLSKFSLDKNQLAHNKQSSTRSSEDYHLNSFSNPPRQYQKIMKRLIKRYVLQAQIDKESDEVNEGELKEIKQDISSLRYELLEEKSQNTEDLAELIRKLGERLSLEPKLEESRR
# Cytochrome P450 2D6, sequence (P10635 whole entry): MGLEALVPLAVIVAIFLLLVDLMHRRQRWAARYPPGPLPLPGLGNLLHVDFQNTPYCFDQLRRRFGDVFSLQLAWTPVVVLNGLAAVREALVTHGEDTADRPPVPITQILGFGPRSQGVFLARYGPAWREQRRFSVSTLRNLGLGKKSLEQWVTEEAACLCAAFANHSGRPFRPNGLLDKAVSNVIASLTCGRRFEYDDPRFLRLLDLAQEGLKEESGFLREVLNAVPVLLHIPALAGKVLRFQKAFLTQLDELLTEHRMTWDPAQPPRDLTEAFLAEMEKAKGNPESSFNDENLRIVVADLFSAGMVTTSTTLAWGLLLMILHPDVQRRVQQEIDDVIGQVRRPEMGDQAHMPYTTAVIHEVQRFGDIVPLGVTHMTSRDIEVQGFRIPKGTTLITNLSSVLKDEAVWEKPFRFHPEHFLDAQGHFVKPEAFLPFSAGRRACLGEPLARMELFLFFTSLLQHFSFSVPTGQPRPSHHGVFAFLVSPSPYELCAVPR
# Cytochrome P450 3A4, sequence (P08684 whole entry): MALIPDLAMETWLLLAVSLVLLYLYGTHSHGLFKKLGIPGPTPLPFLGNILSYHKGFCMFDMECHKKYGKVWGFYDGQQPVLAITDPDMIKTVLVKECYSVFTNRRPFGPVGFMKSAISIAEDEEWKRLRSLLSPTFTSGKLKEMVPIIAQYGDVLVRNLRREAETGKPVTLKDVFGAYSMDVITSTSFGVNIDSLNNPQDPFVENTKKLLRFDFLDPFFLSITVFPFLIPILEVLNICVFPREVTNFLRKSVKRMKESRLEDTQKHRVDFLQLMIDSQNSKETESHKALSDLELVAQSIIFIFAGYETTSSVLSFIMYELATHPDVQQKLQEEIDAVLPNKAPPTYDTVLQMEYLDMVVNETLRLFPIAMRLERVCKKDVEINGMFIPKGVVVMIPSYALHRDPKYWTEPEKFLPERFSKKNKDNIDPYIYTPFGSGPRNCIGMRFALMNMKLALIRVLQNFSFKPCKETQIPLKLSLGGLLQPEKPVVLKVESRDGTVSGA
compound,measurement,setting,value
NC(=O)CNCCC(c1ccccc1)c1ccccc1,AC50,Cytochrome P450 2D6,20 µM (inconclusive)
same,AC50,Cytochrome P450 3A4,2 µM (inconclusive)
same,AC50,[1],15.8 µM (inconclusive)
Cc1c(CCOC(=O)C23CC4(C)CC(C)(CC(C)(C4)C2)C3)sc[n+]1CC(=O)c1ccccc1,EC50,[2],> 150 µM (inactive)
same,EC50,[3],> 38 µM (not active)
same,IC50,[4],> 20 µM (inactive)
same,IC50,Cysteine protease ATG4B,8.57 µM (active)
same,IC50,Phospholipase A2,8.77 µM (active)
same,AC50,[5],5.84 µM (active)
same,AC50,[6],23.6 µM (active)
same,AC50,[7],7.21 µM (active)
COc1ccc(-c2nc(CSCC(=O)NCc3ccco3)c(C)o2)cc1,IC50,[8],> 80 µM (inactive)
same,IC50,HEK293,67.1 µM (inactive)
O=C(CCl)N(c1ccccc1)C1CCCCC1,EC50,[9],4.98 µM (active)
same,AC50,[10],4.51 µM (active)
same,AC50,INS1,4.88 µM (active)
same,AC50,A-375,7.54 µM (active)
same,AC50,Paired box protein Pax-8,3.98 µM (active)
same,AC50,[11],10.7 µM (active)
COc1cc2c(cc1OC)-c1cc(Nc3ccccc3Br)nc(=O)n1CC2,EC50,[12],26.2 µM (active)
same,EC50,[13],13.4 µM (active)
same,EC50,[14],> 112 µM (not active)
same,EC50,[15],0.115 µM (active)
same,IC50,Hexokinase-1,> 80 µM (inactive)
same,IC50,Hexokinase HKDC1,> 80 µM (inactive)
O=C(Nc1nc(-c2ccncc2)cs1)c1ccco1,IC50,[16],4.34 µM (active)
same,AC50,[17],2.56 µM (active)
same,AC50,[18],1.92 µM (active)
N#Cc1sc2nc(-c3ccccc3)cc(-c3ccco3)c2c1N,IC50,CHO,40.7 µM (inactive)
same,IC50,[19],> 128 µM (inactive)
Cc1cc(N2CCNCC2)nc2ccccc12,IC50,[20],20.4 µM (active)
